Assay results reported in patent US10047151B2, “Methods for the treatment of cancer and inflammatory diseases using cereblon as a predictor” (Celgene Corporation, priority 2011, dated 2018).

Assays:
Type in all cases: cell-based
U266B1 cells = experiment: Cell cycle progression (cells in S phase) in siRNA-transfected U266B1 cells; conditions: control mock and negative control siRNA-transfected cells; average of 3 days of treatment; pomalidomide 1 μM, lenalidomide 10 μM
Experimental: Drugs such as lenalidomide and pomalidomide have direct anti-proliferative activity against MM cells by inducing cell cycle arrest in G1 phase, followed by a decrease in viability. To study the role of CRBN in lenalidomide and other drugs anti-proliferative activities, H929 and U266B1 cells, two sensitive myeloma lines, were transfected with CRBN-siRNAs or control siRNAs for 24, 48, 72 and 96 hours. Cells were treated 24 h after transfection with DMSO (0.1%), pomalidomide (1 μM) and lenalidomide (10 μM) for 1, 2, 3 days to evaluated the compound effect on CRBN protein, mRNA expression and the effect on cell cycle and proliferation. […] CRBN down regulation was confirmed by RT-PCR and Western blot using the CRBN70 antibody (FIG. 1).
Knockdown of CRBN markedly abrogated the lenalidomide and pomalidomide-induced delay in cell cycle progression in U266B1 cells. Id.

H929 cells = experiment: Cell cycle progression (cells in S phase) in siRNA-transfected H929 cells; conditions: 72 h treatment
Experimental: The effect of CRBN in H929 cells was also evaluated. H929 cells were transfected with mock, negative control siRNA and CRBN-siRNA-7 for 24, 48, 72 and 96 h. Cells were treated 24 h after transfection with DMSO (0.1%), pomalidomide (1 μM), lenalidomide (10 μM) or 3-(5-amino-2-methyl-4-oxo-4H-quinazolin-3-yl)-piperidine-2,6-dione (“Compound B”) for 1, 2, 3 days and the effect on cell cycle and proliferation investigated. Lenalidomide, pomalidomide and Compound B induced a delay of cell cycle progression, measured as the decrease of the number of cells in S phase, in control mock and negative control siRNA-transfected cells after 72 h treatment (FIG. 2C). Knockdown of CRBN markedly abrogated immunomodulatory drugs-induced delay in cell cycle progression in H929 cells (FIG. 2C) from of 50 to 4% for lenalidomide, from 70 to 15% for pomalidomide, and from 65 to 22% for Compound B.

CRBN = CRBN mRNA and protein expression after drug treatment (RT-PCR, Western blot); conditions: H929 and U266B1 cells; pomalidomide 1 μM, lenalidomide 10 μM
pRb = pRb phosphorylation in H929 cells (Western blot)
U266 = experiment: Ubiscan ubiquitinated peptide quantification in U266
Text: The effects of lenalidomide and pomalidomide on protein ubiquination were investigated using CST Ubiscan technology. Treated samples were sent to Cell Signaling Technology for ubiquinated peptide enrichment and quantification by LC/MS/MS. […] In the MG132 combo, more ubiquinated peptides are observed (compared with their controls). […] These peptides correspond to 176 unique proteins. Top few groups are: nucleosome, chromatin, protein-DNA complex assembly, Histone H2A. Among the 176 proteins, we found five proteins that belong to “ubiquitin-protein ligase activity” category, they are MDM2, HERC2, UBE2D3 (only by pomalidomide), UBE2N (lenalidomide only), UBE2M (both). Results for hits categorized by conditions are shown in FIGS. 8 & 9 (without MG132) and FIGS. 10 & 11 (with MG132).

[1] = test system: CARD11-BCL-10-MALT1 (CBM) complex; experiment: MALT1-induced BCL-10 cleavage (CBM complex activity) in ABC-DLBCL cells
Experimental: Cells were treated with test compounds or 0.1% DMSO for indicated times. Following incubation, cells were collected, pelleted with centrifugation, and immediately lysed in 0.1 ml lysis buffer containing 10 mM Tris-HCl pH 8.0, 10 mM EDTA, 150 mM NaCl, 1% NP-40, 0.5% SDS, 1 mM DTT, 1 mM Na3VO4, plus Complete protease inhibitor cocktail (Roche Applied Science, Indianapolis, Ind.), then processed with a Qiashredder™ (Qiagen, Valencia, Calif.) for 1 minute and frozen on dry ice. Samples were diluted with 6×SDS sample buffer and then boiled for 5 min. Approximately 30 μl of this mixture was loaded per lane on a Criterion Precast 4-12% Tris-HCl gel (Bio-Rad, Hercules, Calif.), electrophoresed, and transferred to nitrocellulose membranes (Bio-Rad, Hercules, Calif.). The membranes were blocked for 1 hour at room temperature using blocking buffer (LI-COR Biosciences, Lincoln, Nebr.), then incubated overnight at 4° C. with antibodies against either BCL-10, IRF4, CRBN or β-actin. Membranes were washed and incubated with IRDye Secondary Antibodies (1:30,000) for 1 hour at room temperature. A standard protocol was then followed for signal detection, using the Odyssey® Infrared Imaging System and software (LI-COR Biosciences, Lincoln, Nebr.).
This mutation has been reported to cause constitutive formation and activation of CARD11-BCL-10-MALT1 (CBM) complex of BCR signaling pathway, leading to NF-κB overactivation in lymphoma cells. See Lenz, G., et al., Science 2008, 319: 1676-9; Thome, M. et al., Cold Spring Harb Perspect Biol. 2010; 2: a003004. To investigate the potential involvement of CBM complex in lenalidomide-induced IRF4 inhibition in these cells, the effect of lenalidomide on the complex activity was examined by measuring MALT1 paracaspase enzymatic activity. MALT1 is activated upon association with BCL-10 and CARD11 to form active CBM complex and then cleaves its binding partners, such as BCL-10.

NF-κB = NF-κB subunit DNA binding ELISA on nuclear extracts
Experimental: Logarithmically growing DLBCL cells were treated with test agents as indicated. Nuclear extracts were prepared using a Nuclear Extract Kit (Active Motif, Carlsbad, Calif.) and protein concentration was determined by the bicinchoninic acid assay (Thermo Scientific, Rockford, Ill.). Detection of NF-κB activity was performed using a sensitive oligo-based colorimetric enzyme-linked immunosorbent assay (ELISA) method, according to the instructions of the manufacturer (Active Motif). Briefly, nuclear extracts of DLBCL cells were hybridized to 96-well plates coated with wild-type DNA oligonucleotides containing a single copy of the NF-κB consensus binding sequence. Bound NF-κB protein was then detected with antibodies specific for p50, p65 (Rel A) or […] subunits. A secondary antibody conjugated to horseradish peroxidase was added and plates were then read by spectrophotometry at 450 nm with a reference wavelength of 655 nm. NF-κB activity was calculated based on OD450/655 nm.
The effect of lenalidomide on NF-κB activity in various DLBCL cells was examined by measuring the level of NF-κB subunit proteins binding to consensus sequences and the NF-κB-driven luciferase activity. […] In contrast, lenalidomide had no effect on NF-κB DNA binding in GCB-DLBCL lines nor in normal peripheral blood mononuclear cells.

## Nc1cccc2c1CN(C1CCC(=O)NC1=O)C2=O (stereo not drawn) [lenalidomide, 3-(4-amino-1-oxo-1,3-dihydro-isoindol-2-yl)-piperidine-2,6-dione]
U266B1 cells
  delay of cell cycle progression, measured as the decrease of the number of cells in S phase: 40%
H929 cells; H929 cells with knockdown of CRBN
  delay in cell cycle progression (decrease of the number of cells in S phase): 4%
H929 cells; control mock and negative control siRNA-transfected H929 cells
  delay in cell cycle progression (decrease of the number of cells in S phase): 50%
CRBN
  mRNA and protein expression of CRBN: affected neither mRNA nor protein expression of CRBN significantly
pRb
  phosphorylation of pRB: decreased
U266
  Ub-proteins increased in abundance: IKZF3, RPL19, PCM1 and NEDD8
  proteins decreased in abundance: GNB2L1 and HNRNPR
[1]; OCI-Ly3 cells
  BCL-10 cleavage: neither the PKCβ inhibitor nor lenalidomide had any effect
[1]; sensitive ABC-DLBCL cell lines OCI-Ly10 and U2932
  MALT1-induced BCL-10 cleavage: inhibited MALT1-induced BCL-10 cleavage in a concentration-dependent manner
NF-κB; GCB-DLBCL lines and normal peripheral blood mononuclear cells
  NF-κB DNA binding: no effect
NF-κB; lenalidomide-insensitive ABC-DLBCL OCI-Ly3 line with CARD11 mutation
  NF-κB inhibition: not by lenalidomide
NF-κB; several ABC-DLBCL cell lines, concentration-dependent
  DNA binding by Rel A/p65, p50 and c-rel/p70 NF-κB subunits: partially inhibited
